Peptide text beside a SMILES is read from it.
Target: T1, Angiotensin Converting Enzyme (ACE) (Oryctolagus cuniculus, UniProt P12822)
T1 sequence (P12822 34-1310): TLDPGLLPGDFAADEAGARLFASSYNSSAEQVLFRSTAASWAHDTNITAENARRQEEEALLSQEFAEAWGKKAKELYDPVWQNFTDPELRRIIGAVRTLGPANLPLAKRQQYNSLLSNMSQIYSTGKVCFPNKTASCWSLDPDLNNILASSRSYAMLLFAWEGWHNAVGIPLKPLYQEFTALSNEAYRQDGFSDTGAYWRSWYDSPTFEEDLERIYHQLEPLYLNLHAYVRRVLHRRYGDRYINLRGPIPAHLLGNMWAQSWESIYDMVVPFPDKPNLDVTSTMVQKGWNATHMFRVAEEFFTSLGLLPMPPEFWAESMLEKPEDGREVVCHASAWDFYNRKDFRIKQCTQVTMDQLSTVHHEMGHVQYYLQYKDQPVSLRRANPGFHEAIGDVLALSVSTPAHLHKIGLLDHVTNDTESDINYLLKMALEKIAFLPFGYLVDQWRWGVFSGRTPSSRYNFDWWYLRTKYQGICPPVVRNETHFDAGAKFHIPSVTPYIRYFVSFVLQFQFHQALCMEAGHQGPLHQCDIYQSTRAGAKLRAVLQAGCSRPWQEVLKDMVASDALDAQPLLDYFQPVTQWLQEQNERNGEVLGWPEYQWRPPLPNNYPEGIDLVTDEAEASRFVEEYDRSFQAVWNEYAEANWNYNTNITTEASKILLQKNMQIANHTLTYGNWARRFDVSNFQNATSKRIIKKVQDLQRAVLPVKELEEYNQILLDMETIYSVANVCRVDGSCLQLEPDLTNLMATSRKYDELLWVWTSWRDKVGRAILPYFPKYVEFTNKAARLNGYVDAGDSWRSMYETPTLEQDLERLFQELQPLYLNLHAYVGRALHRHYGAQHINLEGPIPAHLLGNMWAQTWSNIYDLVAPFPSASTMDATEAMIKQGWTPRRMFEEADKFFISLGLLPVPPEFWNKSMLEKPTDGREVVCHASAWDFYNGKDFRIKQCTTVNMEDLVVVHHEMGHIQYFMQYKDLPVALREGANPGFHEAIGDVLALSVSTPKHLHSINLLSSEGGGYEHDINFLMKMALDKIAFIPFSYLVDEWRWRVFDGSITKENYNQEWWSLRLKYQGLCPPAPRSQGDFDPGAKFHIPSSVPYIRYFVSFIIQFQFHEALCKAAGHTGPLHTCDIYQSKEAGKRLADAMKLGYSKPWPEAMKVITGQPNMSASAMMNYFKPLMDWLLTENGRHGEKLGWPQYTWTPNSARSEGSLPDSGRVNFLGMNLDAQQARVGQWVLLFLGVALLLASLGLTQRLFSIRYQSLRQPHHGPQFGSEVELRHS
Assay: Measurement of ACE inhibitor activity (ACEI activity), Hip-His-Leu substrate, hippuric acid read at 228 nm
Assay type: biochemical
Conditions: chemically synthesized peptides, Table 4
Method: The measurement of ACE activity was performed according to the method disclosed by Cushman and Cheung (Cushman DW, Cheung HS. 1971. Biochem Pharmacol 20:1637-1648) and subsequently modified by Nakamura (Nakamura Y, Yamamoto N, Sakai K et al. 1995. J Dairy Sci 78:777-783). This method is based on the use of Hippuryl-L-Histidyl-L-Leucine (Hip-His-Leu) as substrate given that the action of the ACE on such substrate produced the release of hippuric acid, easily quantifiable by spectrophotometry by absorbance reading at 228 nm (A228) after extraction thereof with ethyl acetate. If the sample to be tested is added to the reaction tube along with the ACE and the substrate, the ACEI activity of the sample tested can be determined. As is mentioned in Example 1.1, during the selection of bacteria the sample used to measure ACEI activity was the supernatant of the fermented milk, subjected to centrifugation at 20,000 x g for 10 minutes and subsequently diluted to half with distilled water.
The substrate solution was formed by 0.1 M sodium borate, 300 mM sodium chloride, 5 mM Hip-His-Leu (Sigma, St. Louis, MO), pH 8.3 at 37°C. The ACE enzyme solution (Sigma, St. Louis, MO) was adjusted to an activity of 0.1 U/mL.
The different reaction mixtures were incubated for 30 minutes at 37°C and subsequently 150 µL of 1 M hydrochloric acid were added in order to stop the reaction and subsequently 1,000 µL, of ethyl acetate in order to extract the hippuric acid. The resulting mixtures were vigorously stirred for 20 seconds and centrifuged at 1,500 x g for 10 minutes in order to separate and collect from each tube the upper phase (ethyl acetate). 750 µL of each upper phase were pipetted into individual tubes, which were introduced in a bath of boiling water under a fume extraction hood until the solvent evaporated. Once the ethyl acetate was eliminated 800 µL of distilled water were added to each tube to dissolve the dry residue smoothly and without stirring. Finally the content of each tube was transferred to quartz cuvettes to read their absorbance at 228 nm. The inhibition percentage (% Inhibition) was calculated by applying the following formula: %Inhibition = ((A)−(B))/((C)−(D)) [formula] wherein (A), (B), (C) and (D) correspond to the absorbances at 228 nm of the solutions indicated in Table 2.
To perform this fermentation example, E. faecalis CECT 5727, E. faecalis CECT 5728, E. faecalis CECT 5826 or E faecalis CECT 5827 may be used indistinctly. The substrate is skimmed bovine milk powder reconstituted in water at 10% and autoclaved ([…] for 20 minutes). First a starter liquid was made, inoculating the substrate with a culture loop such that the initial population was 10^5-10^7 CFU/mL and incubating for 24 hours. 3% by weight of this culture was used as inoculum for the second fermentation which was maintained for 48 hours. Both fermentations were carried out at 30°C. The fermenting process was stopped by pasteurizing the fermented milk [75°C for 1 minute] and the final pasteurized product was used to measure ACEI activity according to the protocol described in Example 1.2, although in this case the fermented milks were subjected to the pasteurization treatment mentioned before being centrifuged at 20,000 x g for 10 minutes. […] Therefore, the final reaction volume is always 160 µL [100 µL of the substrate solution, 20 µL of the ACE solution and 40 µL of the sample to be tested (supernatant at the corresponding dilution with distilled water)].

Row | IC50 | SMILES
1 | > 700 µM | CC[C@H](C)[C@H](NC(=O)[C@@H](NC(=O)[C@@H]1CCCN1C(=O)[C@H](Cc1ccccc1)NC(=O)[C@@H]1CCCN1C(=O)CNC(=O)[C@H](CCCNC(=N)N)NC(=O)[C@@H](NC(=O)[C@@H]1CCCN1C(=O)CNC(=O)[C@H](CC(C)C)NC(=O)[C@@H](N)C(C)C)C(C)C)[C@@H](C)CC)C(=O)N[C@H](C(=O)O)C(C)C [SEQ. ID. NO: 7, VLGPVRGPFPIIV] (H-VLGPVRGPFPIIV-OH)
2 | > 700 µM | CC(C)C[C@H](N)C(=O)N[C@H](C(=O)N[C@@H](CCC(N)=O)C(=O)N[C@H](C(=O)N1CCC[C@H]1C(=O)N[C@H](C(=O)N[C@H](C(=O)N[C@H](C(=O)N1CCC[C@H]1C(=O)N1CCC[C@H]1C(=O)N[C@@H](Cc1ccccc1)C(=O)O)C(C)C)C(C)C)C(C)C)[C@@H](C)O)[C@@H](C)O [SEQ. ID. NO: 6, LTQTPVVVPPF] (H-LTQTPVVVPPF-OH)
3 | 137 µM | CC(C)C[C@H](NC(=O)[C@@H](N)C(C)C)C(=O)NCC(=O)N1CCC[C@H]1C(=O)N[C@H](C(=O)N[C@@H](CCCNC(=N)N)C(=O)NCC(=O)N1CCC[C@H]1C(=O)N[C@@H](Cc1ccccc1)C(=O)N1CCC[C@H]1C(=O)O)C(C)C [SEQ. ID. NO: 2, VLGPVRGPFP] (H-VLGPVRGPFP-OH)
4 | 5.3 µM | CC[C@H](C)[C@H](NC(=O)[C@@H]1CCCN1C(=O)CNC(=O)[C@@H]1CCCN1C(=O)[C@H](Cc1ccccc1)NC(=O)[C@@H]1CCCN1C(=O)[C@H](Cc1ccc(O)cc1)NC(=O)[C@@H](NC(=O)[C@@H](N)CC(C)C)C(C)C)C(=O)N1CCC[C@H]1C(=O)N[C@@H](CC(N)=O)C(=O)N[C@@H](CO)C(=O)N[C@@H](CC(C)C)C(=O)N1CCC[C@H]1C(=O)N[C@@H](CCC(N)=O)C(=O)N[C@@H](CC(N)=O)C(=O)N[C@H](C(=O)N1CCC[C@H]1C(=O)N1CCC[C@H]1C(=O)O)[C@@H](C)CC [SEQ. ID. NO: 8, LVYPFPGPIPNSLPQNIPP] (H-LVYPFPGPIPNSLPQNIPP-OH)

Further lines, the molecule ahead of its results:

Row | SMILES | IC50
5 | CC[C@H](C)[C@H](NC(=O)[C@@H](NC(=O)[C@@H]1CCCN1C(=O)[C@H](Cc1ccccc1)NC(=O)[C@@H]1CCCN1C(=O)CNC(=O)[C@H](CCCNC(=N)N)NC(=O)[C@@H](N)C(C)C)[C@@H](C)CC)C(=O)N[C@H](C(=O)O)C(C)C [SEQ. ID. NO: 4, VRGPFPIIV] (H-VRGPFPIIV-OH) | 630 µM
6 | CC(C)[C@H](N)C(=O)N[C@H](C(=O)N[C@H](C(=O)N1CCC[C@H]1C(=O)N1CCC[C@H]1C(=O)N[C@@H](Cc1ccccc1)C(=O)O)C(C)C)C(C)C [SEQ. ID. NO: 5, VVVPPF] (H-VVVPPF-OH) | > 700 µM
7 | CC(C)C[C@H](NC(=O)[C@@H]1CCCN1C(=O)[C@H](CC(C)C)NC(=O)[C@@H]1CCCN1C(=O)[C@H](CC(C)C)NC(=O)[C@H](Cc1c[nH]cn1)NC(=O)[C@@H](N)CC(C)C)C(=O)O [SEQ. ID. NO: 3, LHLPLPL] (H-LHLPLPL-OH) | 433 µM
8 | CC(C)C[C@H](NC(=O)[C@@H]1CCCN1C(=O)[C@H](CC(C)C)NC(=O)[C@H](Cc1cnc[nH]1)NC(=O)[C@@H](N)CC(C)C)C(=O)N1CCC[C@H]1C(=O)O [SEQ. ID. NO: 1, LHLPLP] (H-LHLPLP-OH) | 5.4 µM

From patent publication EP1640447A1, “BIOACTIVE PEPTIDE-PRODUCING STRAINS OF i ENTEROCOCCUS FAECALIS /i , BIOACTIVE PEPTIDES AND APPLICATIONS THEREOF” (Grupo Leche Pascual S.A., priority 2003, dated 2004)
